From ChEMBL document CHEMBL1149697, “Identification of dissociated non-steroidal glucocorticoid receptor agonists” (Bioorg Med Chem Lett, 2007) come the findings set out here.

Usually pIC50 stands for the negative decadic logarithm of the IC50, by convention in mol/L. The term pEC50 denotes the negative decadic logarithm of the EC50, by convention in mol/L.

The target of one assay is T1, Glucocorticoid receptor (Homo sapiens, UniProt P04150).
T1 sequence (P04150 whole entry): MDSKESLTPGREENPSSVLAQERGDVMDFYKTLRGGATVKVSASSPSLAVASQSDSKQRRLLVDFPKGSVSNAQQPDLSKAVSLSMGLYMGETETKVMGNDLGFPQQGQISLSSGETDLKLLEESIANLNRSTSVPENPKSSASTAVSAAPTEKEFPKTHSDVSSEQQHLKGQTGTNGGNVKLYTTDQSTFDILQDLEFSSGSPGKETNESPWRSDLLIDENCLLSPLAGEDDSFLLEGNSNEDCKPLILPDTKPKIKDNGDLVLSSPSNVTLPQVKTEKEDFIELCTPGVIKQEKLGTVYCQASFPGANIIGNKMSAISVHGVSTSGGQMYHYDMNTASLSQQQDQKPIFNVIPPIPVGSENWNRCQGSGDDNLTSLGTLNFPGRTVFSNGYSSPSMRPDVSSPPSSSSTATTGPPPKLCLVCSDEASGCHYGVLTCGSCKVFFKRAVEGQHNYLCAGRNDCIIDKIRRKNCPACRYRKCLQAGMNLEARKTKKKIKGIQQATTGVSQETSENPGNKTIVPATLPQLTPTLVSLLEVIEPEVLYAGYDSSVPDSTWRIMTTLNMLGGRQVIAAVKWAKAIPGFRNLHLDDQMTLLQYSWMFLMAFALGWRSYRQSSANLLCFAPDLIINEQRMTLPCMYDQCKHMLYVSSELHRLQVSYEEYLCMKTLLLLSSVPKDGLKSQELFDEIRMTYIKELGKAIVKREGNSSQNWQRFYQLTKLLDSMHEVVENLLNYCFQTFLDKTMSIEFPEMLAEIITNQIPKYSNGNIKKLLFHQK

In the next assay the target is T2, Progesterone receptor (Homo sapiens, UniProt P06401).
T2 sequence (P06401 whole entry): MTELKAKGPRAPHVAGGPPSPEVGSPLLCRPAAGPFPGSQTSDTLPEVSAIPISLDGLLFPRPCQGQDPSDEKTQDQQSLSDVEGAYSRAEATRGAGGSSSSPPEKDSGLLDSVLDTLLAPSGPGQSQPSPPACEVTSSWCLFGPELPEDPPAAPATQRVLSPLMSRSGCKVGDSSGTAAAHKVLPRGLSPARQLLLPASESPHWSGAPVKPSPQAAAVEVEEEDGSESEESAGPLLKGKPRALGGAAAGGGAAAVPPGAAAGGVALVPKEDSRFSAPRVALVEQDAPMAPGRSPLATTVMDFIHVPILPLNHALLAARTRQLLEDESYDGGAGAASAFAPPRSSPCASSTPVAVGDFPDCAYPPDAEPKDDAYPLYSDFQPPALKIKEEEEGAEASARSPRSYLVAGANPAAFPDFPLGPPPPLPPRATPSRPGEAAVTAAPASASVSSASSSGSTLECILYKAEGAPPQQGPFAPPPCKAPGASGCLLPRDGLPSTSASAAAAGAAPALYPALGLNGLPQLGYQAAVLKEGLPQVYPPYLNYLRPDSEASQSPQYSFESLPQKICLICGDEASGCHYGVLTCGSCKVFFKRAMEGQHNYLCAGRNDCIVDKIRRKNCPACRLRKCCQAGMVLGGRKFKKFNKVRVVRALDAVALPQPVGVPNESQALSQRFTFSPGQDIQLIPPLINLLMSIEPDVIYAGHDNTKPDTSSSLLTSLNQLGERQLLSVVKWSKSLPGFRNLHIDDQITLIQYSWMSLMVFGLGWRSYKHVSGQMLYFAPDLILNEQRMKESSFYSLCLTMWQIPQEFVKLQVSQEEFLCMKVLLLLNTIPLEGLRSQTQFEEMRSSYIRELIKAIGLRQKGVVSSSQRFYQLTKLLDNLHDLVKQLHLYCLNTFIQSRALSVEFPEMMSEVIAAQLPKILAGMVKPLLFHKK
Description: Displacement of TAMRA labeled mifepristone at human progesterone receptor in insect cell.

The target of assay [1] is T3, Mineralocorticoid receptor (Homo sapiens, UniProt P08235).
T3 sequence (P08235 whole entry): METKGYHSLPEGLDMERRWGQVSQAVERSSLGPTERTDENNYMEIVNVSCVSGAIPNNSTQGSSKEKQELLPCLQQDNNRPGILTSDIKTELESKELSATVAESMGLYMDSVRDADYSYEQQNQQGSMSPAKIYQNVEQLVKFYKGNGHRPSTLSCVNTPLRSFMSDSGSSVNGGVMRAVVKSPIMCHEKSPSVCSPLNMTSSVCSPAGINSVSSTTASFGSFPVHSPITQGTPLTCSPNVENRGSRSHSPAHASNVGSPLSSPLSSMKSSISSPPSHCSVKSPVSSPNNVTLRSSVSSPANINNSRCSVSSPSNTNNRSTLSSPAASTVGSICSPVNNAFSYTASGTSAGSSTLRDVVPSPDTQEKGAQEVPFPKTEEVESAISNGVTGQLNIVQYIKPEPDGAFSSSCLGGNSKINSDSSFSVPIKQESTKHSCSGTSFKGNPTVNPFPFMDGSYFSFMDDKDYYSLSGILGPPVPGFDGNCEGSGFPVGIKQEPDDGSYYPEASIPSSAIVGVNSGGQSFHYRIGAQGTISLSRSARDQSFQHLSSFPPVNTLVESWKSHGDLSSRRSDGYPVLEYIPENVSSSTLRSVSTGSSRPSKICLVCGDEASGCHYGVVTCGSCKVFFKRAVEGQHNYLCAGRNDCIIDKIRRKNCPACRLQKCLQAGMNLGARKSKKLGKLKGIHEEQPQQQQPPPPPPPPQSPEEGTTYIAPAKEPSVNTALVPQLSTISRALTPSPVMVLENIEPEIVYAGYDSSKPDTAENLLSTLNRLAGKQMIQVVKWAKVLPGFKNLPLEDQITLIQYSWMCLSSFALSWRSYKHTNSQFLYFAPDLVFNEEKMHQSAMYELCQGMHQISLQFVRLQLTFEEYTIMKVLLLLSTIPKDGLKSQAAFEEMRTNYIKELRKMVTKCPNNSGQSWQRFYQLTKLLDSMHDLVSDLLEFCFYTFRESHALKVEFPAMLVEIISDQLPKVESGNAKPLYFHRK
Nature of the assay: Displacement of TAMRA labeled dexamethasone at human mineralocorticoid receptor in insect cell.

Assay [2] concerns HFF. Nature of the assay: Antiinflammatory activity assessed as upregulation of aromatase in HFF cells by transactivation assay relative to dexamethasone. The assay is classed as functional, Homo sapiens. Set-up: concentration or dose not given beside the values.
For assay [3], the system named is HFF. Description: Antiinflammatory activity assessed as upregulation of aromatase in HFF cells by transactivation assay. To be noted: Homo sapiens. The format is functional, cell-based.
Assay [4] concerns HFF. Description: Antiinflammatory activity assessed as inhibition of IL6 production in HFF cells by transrepression assay relative to dexamethasone. The assay is classed as functional, Homo sapiens.
In assay [5] the test system is HFF. Nature of the assay: Antiinflammatory activity assessed as inhibition of IL1 stimulated IL6 production in HFF cells by transrepression assay. The note with it: Homo sapiens. The assay is classed as functional, cell-based.

Structures are written as SMILES. pEC50, pIC50: −log10 of the molar value.

With `COc1ccc(F)cc1C(C)(C)CC(O)(Cc1cccc(C)c1)C(F)(F)F` (stereo not given), the pIC50 at Glucocorticoid receptor is 6.24; on Progesterone receptor it was < 5.98; in assay [1], < 5.98.
Consider `COc1ccc(F)cc1C(C)(C)CC(O)(Cc1cc(Cl)ccc1Cl)C(F)(F)F` (stereo not given), for which the pIC50 is 7.35 on Glucocorticoid receptor, < 5.70 on Progesterone receptor and 6.27 in assay [1].
`COc1ccc(F)cc1C(C)(C)CC(O)(Cc1ccccc1C)C(F)(F)F` (stereo not given): the values for the negative logarithm of the IC50 (pIC50) (against Glucocorticoid receptor; at Progesterone receptor; in assay [1]) were 6.07, < 5.95 and < 5.95, respectively.
In the case of `COc1ccc(F)cc1C(C)(C)CC(O)(Cc1ccc(C#N)cc1)C(F)(F)F` (stereo not given), the Activity in the assay on HFF [2] came to 0%. Besides, the negative logarithm of the EC50 (pEC50) with HFF [3] and in the assay on HFF [5] was < 5.70 in each case. Also, the pIC50 was 7.52 against Glucocorticoid receptor, 6.46 on Progesterone receptor and 6.29 in assay [1]. Besides, the Efficacy in the assay with HFF [4] is given as 0%.
Consider `COc1ccc(F)cc1C(C)(C)CC(O)(Cc1ccc(C)cc1)C(F)(F)F` (stereo not given), for which the negative-log IC50 (pIC50) is 6.02 against Glucocorticoid receptor, < 5.70 on Progesterone receptor and < 5.70 in assay [1].
For the compound `COc1ccc(F)cc1C(C)(C)CC(O)(Cc1ccc(C)c2ccccc12)C(F)(F)F` (stereo not given), the figures for the pIC50 (against Glucocorticoid receptor; on Progesterone receptor; in assay [1]) were 7.24, 5.92 and 5.98, respectively. The Efficacy in the assay with HFF [4] worked out at 9%. Moreover, the pEC50 with HFF [5] was < 5.70.
As to `COc1ccc(F)cc1C(C)(C)CC(O)(Cc1cccc(Cl)c1Cl)C(F)(F)F` (stereo not given), the pIC50 against Glucocorticoid receptor was 7.12; at Progesterone receptor it was 5.89; in assay [1], 6.05.
On the same counts, the results for `COc1ccc(F)cc1C(C)(C)CC(O)(Cc1ccccc1Cl)C(F)(F)F` (stereo not given) are 7.00, < 5.70 and 6.15.
Consider `C[C@@H]1C[C@H]2[C@@H]3CCC4=CC(=O)C=C[C@]4(C)[C@@]3(F)[C@@H](O)C[C@]2(C)[C@@]1(O)C(=O)CO` [DEXAMETHASONE], for which the values for the negative logarithm of the EC50 (pEC50) with HFF [3] and with HFF [5] were 8.70 and 9.30, respectively.
For `COc1ccc(F)cc1C(C)(C)CC(O)(Cc1ccccc1Br)C(F)(F)F` (stereo not given), the pIC50 at Glucocorticoid receptor was 6.69; on Progesterone receptor, < 6.29; in assay [1] it was < 6.29.
Regarding `COc1ccc(F)cc1C(C)(C)CC(O)(Cc1c(Cl)cccc1Cl)C(F)(F)F` (stereo not given), the pIC50 is 6.24 against Glucocorticoid receptor, < 5.70 at Progesterone receptor and 5.96 in assay [1].
With `COc1ccc(CC(O)(CC(C)(C)c2cc(F)ccc2OC)C(F)(F)F)cc1` (stereo not given), the pIC50 against Glucocorticoid receptor is 5.90; on Progesterone receptor it was < 5.85; in assay [1], < 5.85.
With `COc1ccc(F)cc1C(C)(C)CC(O)(CCCc1ccccc1)C(F)(F)F` (stereo not given), the pIC50 against Glucocorticoid receptor is 5.95; on Progesterone receptor, < 6.13; in assay [1], < 6.13.
For the compound `COc1ccc(F)cc1C(C)(C)CC(O)(Cc1ccccc1)C(F)(F)F` (stereo not given), the values for the pIC50 (on Glucocorticoid receptor; on Progesterone receptor; in assay [1]) were 6.21, < 5.89 and < 5.89, respectively.
On to `COc1ccc(F)cc1C(C)(C)CC(O)(Cc1cccc(C#N)c1)C(F)(F)F` (stereo not given), for which the pIC50 is 7.09 against Glucocorticoid receptor, < 5.70 at Progesterone receptor and 6.40 in assay [1].
With `COc1ccc(F)cc1C(C)(C)CC(O)(Cc1c(C)ccc2ccccc12)C(F)(F)F` (stereo not given), the pIC50 at Glucocorticoid receptor is 7.19; at Progesterone receptor it was < 5.70; in assay [1] it was 6.35.
Regarding `COc1ccc(F)cc1C(C)(C)CC(O)(Cc1ccc2ccccc2c1)C(F)(F)F` (stereo not given), the pIC50 was 6.56 against Glucocorticoid receptor, < 5.70 at Progesterone receptor and < 5.70 in assay [1].
With `COc1ccc(F)cc1C(C)(C)CC(O)(Cc1cccc(Cl)c1)C(F)(F)F` (stereo not given), the pIC50 is 6.26 at Glucocorticoid receptor, < 5.70 at Progesterone receptor and < 5.70 in assay [1].
With `COc1ccc(F)cc1C(C)(C)CC(O)(Cc1ccccc1F)C(F)(F)F` (stereo not given), the pIC50 on Glucocorticoid receptor was 6.43; at Progesterone receptor it was < 5.70; in assay [1], 5.87.
`COc1ccc(F)cc1C(C)(C)CC(O)(c1ccccc1)C(F)(F)F` (stereo not given): the pIC50 against Glucocorticoid receptor is < 5.80; on Progesterone receptor it was < 5.80; in assay [1], 5.80.
For `COc1ccc(F)cc1C(C)(C)CC(O)(Cc1ccc(Cl)cc1)C(F)(F)F` (stereo not given), the pIC50 is 6.47 against Glucocorticoid receptor, < 5.70 on Progesterone receptor and 5.74 in assay [1].
Turning to `COc1ccc(F)cc1C(C)(C)CC(O)(Cc1cc(Cl)cc(Cl)c1)C(F)(F)F` (stereo not given), the pIC50 against Glucocorticoid receptor is 7.22; at Progesterone receptor, < 5.70; in assay [1], 6.12.
On to `COc1ccc(F)cc1C(C)(C)CC(O)(CCc1ccccc1)C(F)(F)F` (stereo not given), for which the pIC50 (on Glucocorticoid receptor; on Progesterone receptor; in assay [1]) was < 5.89 throughout.
On to `COc1ccc(F)cc1C(C)(C)CC(O)(Cc1ccc(Cl)cc1Cl)C(F)(F)F` (stereo not given), for which the pIC50 on Glucocorticoid receptor is 7.17; at Progesterone receptor it was 6.18; in assay [1], 6.06.
On the same counts, the results for `COc1ccc(F)cc1C(C)(C)CC(O)(Cc1ccc(C=O)cc1)C(F)(F)F` (stereo not given) are 7.70, < 5.70 and 6.19.
Regarding `COc1ccc(F)cc1C(C)(C)CC(O)(Cc1cccc2ccccc12)C(F)(F)F` (stereo not given), the pIC50 at Glucocorticoid receptor is 6.92; at Progesterone receptor, < 5.70; in assay [1], 5.85.
Take `COc1ccc(F)cc1C(C)(C)CC(O)(C(=O)Nc1ccc2c(=O)onc(C)c2c1)C(F)(F)F` (stereo not given): the Activity in the assay with HFF [2] turned out to be 0%. Besides, the pEC50 in the assay with HFF [3] and in the assay on HFF [5] was < 5.70 in each case. Besides, the Efficacy in the assay with HFF [4] amounted to 20%.
For `COc1ccc(F)cc1C(C)(C)CC(O)(Cc1ccc(C=O)cc1Cl)C(F)(F)F` (stereo not given), the pIC50 on Glucocorticoid receptor was 7.72; at Progesterone receptor, 5.74; in assay [1] it was 6.46.
